{"source": "ChEMBL document CHEMBL4387741", "about": "“Optimization of novel reversible Bruton's tyrosine kinase inhibitors identified using Tethering-fragment-based screens” (Bioorg Med Chem, 2019)", "key": {"[1]": {"target": "Receptor tyrosine-protein kinase erbB-2 (Homo sapiens) (UniProt P04626)", "assay": "Inhibition of wild-type human partial length ERBB2 (K646 to V1225 residues) expressed in mammalian expression system at 1 uM by Kinomescan method relative to control"}, "[2]": {"target": "Tyrosine-protein kinase Tec (Homo sapiens) (UniProt P42680)", "sequence (P42680 whole entry, the tested form may be a part)": "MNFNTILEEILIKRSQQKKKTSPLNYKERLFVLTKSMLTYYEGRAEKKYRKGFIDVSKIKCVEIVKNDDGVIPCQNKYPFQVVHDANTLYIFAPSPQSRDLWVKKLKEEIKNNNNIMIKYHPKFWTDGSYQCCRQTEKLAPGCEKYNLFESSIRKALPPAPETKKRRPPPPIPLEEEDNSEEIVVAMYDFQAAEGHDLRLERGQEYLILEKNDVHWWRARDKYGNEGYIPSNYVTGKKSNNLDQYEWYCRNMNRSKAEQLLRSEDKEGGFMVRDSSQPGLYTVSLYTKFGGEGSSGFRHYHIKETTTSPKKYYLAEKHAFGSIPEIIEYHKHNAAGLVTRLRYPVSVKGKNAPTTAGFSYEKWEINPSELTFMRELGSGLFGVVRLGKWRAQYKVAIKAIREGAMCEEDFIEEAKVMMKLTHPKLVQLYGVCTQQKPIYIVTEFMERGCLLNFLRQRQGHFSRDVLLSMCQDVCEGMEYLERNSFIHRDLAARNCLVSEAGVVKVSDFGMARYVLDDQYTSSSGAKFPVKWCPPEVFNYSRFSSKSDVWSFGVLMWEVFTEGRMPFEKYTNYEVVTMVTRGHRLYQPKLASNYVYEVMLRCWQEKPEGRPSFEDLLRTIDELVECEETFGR", "assay": "Inhibition of wild-type human partial length TEC (L341 to D620 residues) expressed in bacterial expression system at 1 uM by Kinomescan method relative to control"}, "[3]": {"target": "cAMP-dependent protein kinase catalytic subunit alpha (Homo sapiens) (UniProt P17612)", "assay": "Inhibition of wild-type human partial length PKAC-alpha (G10 to F351 residues) expressed in bacterial expression system at 1 uM by Kinomescan method relative to control"}, "[4]": {"target": "cAMP-dependent protein kinase catalytic subunit beta (Homo sapiens) (UniProt P22694)", "assay": "Inhibition of wild-type human full length PKAC-beta (M1 to F351 residues) expressed in bacterial expression system at 1 uM by Kinomescan method relative to control"}, "[5]": {"target": "Mitogen-activated protein kinase kinase kinase 12 (Homo sapiens) (UniProt Q12852)", "sequence (Q12852 whole entry, looked up, the tested form may be a part)": "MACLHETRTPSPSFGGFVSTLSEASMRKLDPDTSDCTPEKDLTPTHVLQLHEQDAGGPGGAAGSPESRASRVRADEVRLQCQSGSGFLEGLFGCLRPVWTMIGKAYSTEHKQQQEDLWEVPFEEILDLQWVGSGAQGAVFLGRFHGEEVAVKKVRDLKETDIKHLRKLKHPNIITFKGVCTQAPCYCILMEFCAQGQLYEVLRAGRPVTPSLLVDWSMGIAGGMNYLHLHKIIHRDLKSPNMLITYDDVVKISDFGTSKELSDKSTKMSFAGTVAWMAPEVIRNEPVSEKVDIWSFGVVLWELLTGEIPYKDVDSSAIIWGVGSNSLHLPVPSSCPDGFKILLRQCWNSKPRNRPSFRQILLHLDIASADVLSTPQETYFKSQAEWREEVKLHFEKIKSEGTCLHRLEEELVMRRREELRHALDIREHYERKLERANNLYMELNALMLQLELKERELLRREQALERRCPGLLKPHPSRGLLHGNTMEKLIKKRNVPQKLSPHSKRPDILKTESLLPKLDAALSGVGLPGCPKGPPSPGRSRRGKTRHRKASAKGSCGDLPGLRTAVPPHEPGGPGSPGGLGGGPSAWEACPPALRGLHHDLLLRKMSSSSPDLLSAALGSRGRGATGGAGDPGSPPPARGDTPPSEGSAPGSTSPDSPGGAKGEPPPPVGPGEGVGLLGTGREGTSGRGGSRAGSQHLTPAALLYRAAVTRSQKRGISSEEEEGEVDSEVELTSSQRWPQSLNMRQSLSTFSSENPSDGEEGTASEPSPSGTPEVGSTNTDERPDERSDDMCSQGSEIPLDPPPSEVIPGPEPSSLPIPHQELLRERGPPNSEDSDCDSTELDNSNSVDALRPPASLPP", "assay": "Inhibition of wild-type human full length DLK (M1 to P859 residues) expressed in mammalian expression system at 1 uM by Kinomescan method relative to control"}, "[6]": {"target": "STE20/SPS1-related proline-alanine-rich protein kinase (Homo sapiens) (UniProt Q9UEW8)", "assay": "Inhibition of wild-type human partial length STK39 (P43 to I357 residues) expressed in mammalian expression system at 1 uM by Kinomescan method relative to control"}, "[7]": {"target": "Tyrosine-protein kinase Yes (Homo sapiens) (UniProt P07947)", "assay": "Inhibition of wild-type human partial length YES (T257 to L543 residues) expressed in bacterial expression system at 1 uM by Kinomescan method relative to control"}, "[8]": {"target": "Wee1-like protein kinase (Homo sapiens) (UniProt P30291)", "assay": "Inhibition of wild-type human partial length WEE1 (M291 to K575 residues) expressed in bacterial expression system at 1 uM by Kinomescan method relative to control"}, "[9]": {"target": "Ephrin type-A receptor 3 (Homo sapiens) (UniProt P29320)", "assay": "Inhibition of wild-type human partial length EPHA3 (D604 to K889 residues) expressed in bacterial expression system at 1 uM by Kinomescan method relative to control"}, "[10]": {"test_system": "Phosphatidylinositol 4,5-bisphosphate 3-kinase catalytic subunit alpha isoform (Homo sapiens), P42336 [E542K]", "assay": "Inhibition of human partial length PIK3CA E542K mutant (R108 to N1068 residues) expressed in mammalian expression system at 1 uM by Kinomescan method relative to control"}, "[11]": {"target": "Peripheral plasma membrane protein CASK (Homo sapiens) (UniProt O14936)", "sequence (O14936 whole entry, the tested form may be a part)": "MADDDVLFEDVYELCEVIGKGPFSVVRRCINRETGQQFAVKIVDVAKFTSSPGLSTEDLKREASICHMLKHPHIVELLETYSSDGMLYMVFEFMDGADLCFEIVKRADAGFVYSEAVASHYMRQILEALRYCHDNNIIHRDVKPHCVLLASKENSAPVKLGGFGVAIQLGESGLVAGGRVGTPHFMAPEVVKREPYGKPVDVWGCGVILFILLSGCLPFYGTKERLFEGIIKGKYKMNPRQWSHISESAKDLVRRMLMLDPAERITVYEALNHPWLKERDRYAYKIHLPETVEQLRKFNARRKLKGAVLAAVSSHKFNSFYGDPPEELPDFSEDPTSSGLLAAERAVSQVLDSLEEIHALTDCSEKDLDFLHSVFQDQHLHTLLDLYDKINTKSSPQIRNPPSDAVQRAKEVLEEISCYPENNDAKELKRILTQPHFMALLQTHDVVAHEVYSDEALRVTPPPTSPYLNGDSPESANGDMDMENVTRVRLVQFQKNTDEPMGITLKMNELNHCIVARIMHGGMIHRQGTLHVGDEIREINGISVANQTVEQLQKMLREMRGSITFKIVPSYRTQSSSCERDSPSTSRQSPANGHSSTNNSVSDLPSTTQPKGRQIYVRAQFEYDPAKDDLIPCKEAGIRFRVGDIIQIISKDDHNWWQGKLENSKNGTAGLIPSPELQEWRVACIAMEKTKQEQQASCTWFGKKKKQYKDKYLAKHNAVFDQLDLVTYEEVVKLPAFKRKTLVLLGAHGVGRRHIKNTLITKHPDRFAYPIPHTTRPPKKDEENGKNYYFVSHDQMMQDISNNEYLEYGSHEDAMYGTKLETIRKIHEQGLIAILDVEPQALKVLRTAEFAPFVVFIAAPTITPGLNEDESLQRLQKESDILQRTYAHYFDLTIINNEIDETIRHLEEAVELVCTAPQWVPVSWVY", "assay": "Inhibition of wild-type human partial length CASK (M1 to H315 residues) expressed in mammalian expression system at 1 uM by Kinomescan method relative to control"}, "[12]": {"target": "Mast/stem cell growth factor receptor Kit (Homo sapiens) (UniProt P10721)", "assay": "Inhibition of wild-type human partial length autoinhibited KIT (Y545 to D952 residues) expressed in mammalian expression system at 1 uM by Kinomescan method relative to control"}, "[13]": {"target": "Mitogen-activated protein kinase 14 (Homo sapiens) (UniProt Q16539)", "sequence (Q16539 whole entry, the tested form may be a part)": "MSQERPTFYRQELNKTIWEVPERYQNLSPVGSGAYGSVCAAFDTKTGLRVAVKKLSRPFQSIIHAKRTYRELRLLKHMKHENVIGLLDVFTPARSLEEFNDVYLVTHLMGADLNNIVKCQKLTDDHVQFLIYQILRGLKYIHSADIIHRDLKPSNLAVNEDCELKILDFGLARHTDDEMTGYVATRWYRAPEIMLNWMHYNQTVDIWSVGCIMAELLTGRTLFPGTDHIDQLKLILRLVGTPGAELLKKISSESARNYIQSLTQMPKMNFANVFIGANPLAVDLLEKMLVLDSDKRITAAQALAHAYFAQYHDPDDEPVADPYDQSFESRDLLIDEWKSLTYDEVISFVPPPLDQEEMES", "assay": "Inhibition of wild-type human full length p38-alpha (M1 to S360 residues) expressed in bacterial expression system at 1 uM by Kinomescan method relative to control"}, "[14]": {"target": "Cyclin-dependent kinase 17 (Homo sapiens) (UniProt Q00537)", "sequence (Q00537 whole entry, looked up, the tested form may be a part)": "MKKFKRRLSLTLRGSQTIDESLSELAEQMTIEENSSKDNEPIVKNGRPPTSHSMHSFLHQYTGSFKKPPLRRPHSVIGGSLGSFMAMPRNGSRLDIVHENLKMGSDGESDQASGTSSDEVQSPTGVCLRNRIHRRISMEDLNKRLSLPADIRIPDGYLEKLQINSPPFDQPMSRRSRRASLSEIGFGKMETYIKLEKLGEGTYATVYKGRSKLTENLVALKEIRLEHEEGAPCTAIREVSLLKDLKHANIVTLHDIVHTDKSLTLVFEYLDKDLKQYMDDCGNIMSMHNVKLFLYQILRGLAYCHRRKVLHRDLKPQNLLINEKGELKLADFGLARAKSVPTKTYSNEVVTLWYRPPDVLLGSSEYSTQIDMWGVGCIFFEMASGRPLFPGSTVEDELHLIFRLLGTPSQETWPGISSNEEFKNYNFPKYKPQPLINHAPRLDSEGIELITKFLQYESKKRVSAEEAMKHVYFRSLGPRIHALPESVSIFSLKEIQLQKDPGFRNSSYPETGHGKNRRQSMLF", "assay": "Inhibition of wild-type human full length PCTK2 (M1 to F523 residues) expressed in bacterial expression system at 1 uM by Kinomescan method relative to control"}, "[15]": {"target": "Aurora kinase C (Homo sapiens) (UniProt Q9UQB9)", "sequence (Q9UQB9 whole entry, the tested form may be a part)": "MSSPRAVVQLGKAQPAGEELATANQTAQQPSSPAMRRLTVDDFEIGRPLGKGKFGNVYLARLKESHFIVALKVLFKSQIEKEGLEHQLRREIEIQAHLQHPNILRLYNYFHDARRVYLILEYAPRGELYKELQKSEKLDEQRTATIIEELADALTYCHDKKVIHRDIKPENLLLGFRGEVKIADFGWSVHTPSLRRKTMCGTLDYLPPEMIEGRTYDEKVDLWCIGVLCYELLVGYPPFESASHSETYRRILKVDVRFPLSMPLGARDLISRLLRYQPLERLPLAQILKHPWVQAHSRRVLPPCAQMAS", "assay": "Inhibition of wild-type human full length AURKC (M1 to S275 residues) expressed in bacterial expression system at 1 uM by Kinomescan method relative to control"}, "[16]": {"test_system": "Phosphatidylinositol 4,5-bisphosphate 3-kinase catalytic subunit alpha isoform (Homo sapiens), P42336 [E545K]", "assay": "Inhibition of human partial length PIK3CA E545K mutant (R108 to N1068 residues) expressed in mammalian expression system at 1 uM by Kinomescan method relative to control"}, "[17]": {"target": "Serine/threonine-protein kinase ULK2 (Homo sapiens) (UniProt Q8IYT8)", "assay": "Inhibition of wild-type human partial length ULK2 (M1 to S301 residues) expressed in mammalian expression system at 1 uM by Kinomescan method relative to control"}, "[18]": {"target": "Tyrosine-protein kinase ABL1 (Homo sapiens) (UniProt P00519)", "assay": "Inhibition of wild-type human phosphorylated ABL1 (S229 to K512 residues) expressed in mammalian expression system at 10 uM by Kinomescan method relative to control"}, "[19]": {"test_system": "Leucine-rich repeat serine/threonine-protein kinase 2 (Homo sapiens), Q5S007 [G2019S]", "assay": "Inhibition of human partial length LRRK2 G2019S mutant (H970 to E2527 residues) expressed in mammalian expression system at 10 uM by Kinomescan method relative to control"}, "[20]": {"target": "Phosphatidylinositol 4,5-bisphosphate 3-kinase catalytic subunit delta isoform (Homo sapiens) (UniProt O00329)", "sequence (O00329 whole entry, the tested form may be a part, canonical isoform)": "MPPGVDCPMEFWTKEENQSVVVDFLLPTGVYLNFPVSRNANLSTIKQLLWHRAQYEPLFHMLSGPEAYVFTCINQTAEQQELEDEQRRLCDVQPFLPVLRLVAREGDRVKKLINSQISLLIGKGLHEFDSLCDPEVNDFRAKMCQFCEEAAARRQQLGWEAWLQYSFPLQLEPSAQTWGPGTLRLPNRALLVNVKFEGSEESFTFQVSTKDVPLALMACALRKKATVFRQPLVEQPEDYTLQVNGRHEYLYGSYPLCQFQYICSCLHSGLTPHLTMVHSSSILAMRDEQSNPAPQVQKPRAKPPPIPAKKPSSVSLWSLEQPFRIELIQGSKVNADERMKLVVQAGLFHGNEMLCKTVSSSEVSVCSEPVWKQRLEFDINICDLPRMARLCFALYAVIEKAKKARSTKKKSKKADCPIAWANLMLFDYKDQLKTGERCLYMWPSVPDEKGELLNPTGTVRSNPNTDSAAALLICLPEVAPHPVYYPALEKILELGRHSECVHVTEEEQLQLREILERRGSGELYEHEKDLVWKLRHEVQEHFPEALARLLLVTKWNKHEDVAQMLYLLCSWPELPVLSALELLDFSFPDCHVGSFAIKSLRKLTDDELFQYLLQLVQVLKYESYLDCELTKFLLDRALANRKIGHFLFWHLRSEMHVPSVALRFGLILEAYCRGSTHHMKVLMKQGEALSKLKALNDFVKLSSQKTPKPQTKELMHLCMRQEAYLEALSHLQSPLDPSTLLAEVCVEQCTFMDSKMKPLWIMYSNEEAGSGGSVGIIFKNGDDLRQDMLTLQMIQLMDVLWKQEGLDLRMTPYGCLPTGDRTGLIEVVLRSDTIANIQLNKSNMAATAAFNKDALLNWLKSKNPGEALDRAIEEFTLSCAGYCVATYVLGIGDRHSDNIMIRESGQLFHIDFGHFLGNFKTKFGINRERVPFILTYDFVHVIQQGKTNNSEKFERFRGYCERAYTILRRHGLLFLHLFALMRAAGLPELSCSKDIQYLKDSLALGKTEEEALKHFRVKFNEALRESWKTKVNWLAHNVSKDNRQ", "assay": "Inhibition of wild-type human partial length PIK3CD (R108 to Q1044 residues) expressed in mammalian expression system at 10 uM by Kinomescan method relative to control"}, "[21]": {"target": "Cyclin-dependent kinase 7 (Homo sapiens) (UniProt P50613)", "sequence (P50613 whole entry, the tested form may be a part)": "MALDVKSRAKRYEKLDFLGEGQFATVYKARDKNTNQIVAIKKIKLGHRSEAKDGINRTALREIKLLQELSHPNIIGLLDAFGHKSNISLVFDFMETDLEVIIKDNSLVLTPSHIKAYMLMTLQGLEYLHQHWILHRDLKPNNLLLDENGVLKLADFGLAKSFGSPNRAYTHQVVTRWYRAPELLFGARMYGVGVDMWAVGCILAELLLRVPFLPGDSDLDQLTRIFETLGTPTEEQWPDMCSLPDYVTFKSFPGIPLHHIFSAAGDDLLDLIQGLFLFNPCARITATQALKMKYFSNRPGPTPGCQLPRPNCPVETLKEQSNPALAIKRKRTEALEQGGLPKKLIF", "assay": "Inhibition of wild-type human full length CDK7 (M1 to L344 residues) expressed in mammalian expression system at 10 uM by Kinomescan method relative to control"}, "[22]": {"target": "Cyclin-dependent kinase 4/cyclin D1 (Homo sapiens) (UniProt P11802+P24385)", "assay": "Inhibition of wild-type human full length CDK4/cyclinD1 (M1 to E303 residues) expressed in mammalian expression system at 10 uM by Kinomescan method relative to control"}, "[23]": {"target": "3-phosphoinositide-dependent protein kinase 1 (Homo sapiens) (UniProt O15530)", "assay": "Inhibition of wild-type human full length PDPK1 (M1 to Q556 residues) expressed in bacterial expression system at 10 uM by Kinomescan method relative to control"}, "[24]": {"target": "Serine/threonine-protein kinase PAK 2 (Homo sapiens) (UniProt Q13177)", "assay": "Inhibition of wild-type human partial length PAK2 (P151 to R525 residues) expressed in bacterial expression system at 10 uM by Kinomescan method relative to control"}, "[25]": {"test_system": "Epidermal growth factor receptor (Homo sapiens), P00533 [UNDEFINED MUTATION]", "assay": "Inhibition of human partial length EGFR E746-A750del mutant expressed in bacterial expression system at 10 uM by Kinomescan method relative to control"}, "[26]": {"target": "Cyclin-dependent kinase 17 (Homo sapiens) (UniProt Q00537)", "assay": "Inhibition of wild-type human full length PCTK2 (M1 to F523 residues) expressed in bacterial expression system at 10 uM by Kinomescan method relative to control"}, "[27]": {"target": "Activin receptor type-2A (Homo sapiens) (UniProt P27037)", "assay": "Inhibition of wild-type human ACVR2A (V171 to T499 residues) expressed in bacterial expression system at 10 uM by Kinomescan method relative to control"}}}
{"compound": "O=C(Nc1cccc([C@@H]2CN(c3ncnc4[nH]ccc34)CCN2CCO)c1)Nc1c(F)cccc1N1CCCC1", "values": [{"measurement": "inhibition", "setting": "[1]", "value": 83, "unit": "%"}, {"measurement": "inhibition", "setting": "[2]", "value": 45, "unit": "%"}, {"measurement": "inhibition", "setting": "[3]", "value": 76, "unit": "%"}, {"measurement": "inhibition", "setting": "[4]", "value": 99, "unit": "%"}, {"measurement": "inhibition", "setting": "[5]", "value": 79, "unit": "%"}, {"measurement": "inhibition", "setting": "[6]", "value": 75, "unit": "%"}, {"measurement": "inhibition", "setting": "[7]", "value": 67, "unit": "%"}, {"measurement": "inhibition", "setting": "[8]", "value": 100, "unit": "%"}, {"measurement": "inhibition", "setting": "[9]", "value": 100, "unit": "%"}, {"measurement": "inhibition", "setting": "[10]", "value": 79, "unit": "%"}, {"measurement": "inhibition", "setting": "[11]", "value": 78, "unit": "%"}, {"measurement": "inhibition", "setting": "[12]", "value": 100, "unit": "%"}, {"measurement": "inhibition", "setting": "[13]", "value": 100, "unit": "%"}, {"measurement": "inhibition", "setting": "[14]", "value": 100, "unit": "%"}, {"measurement": "inhibition", "setting": "[15]", "value": 33, "unit": "%"}, {"measurement": "inhibition", "setting": "[16]", "value": 56, "unit": "%"}, {"measurement": "inhibition", "setting": "[17]", "value": 39, "unit": "%"}]}
{"compound": "O=C(Nc1cccc([C@H]2CCCN(c3ncnc4[nH]ccc34)C2)c1)Nc1ccccc1N1CCCC1", "values": [{"measurement": "inhibition", "setting": "[18]", "value": 43, "unit": "%"}, {"measurement": "inhibition", "setting": "[19]", "value": 63, "unit": "%"}, {"measurement": "inhibition", "setting": "[20]", "value": 99, "unit": "%"}, {"measurement": "inhibition", "setting": "[21]", "value": 70, "unit": "%"}, {"measurement": "inhibition", "setting": "[22]", "value": 74, "unit": "%"}, {"measurement": "inhibition", "setting": "[23]", "value": 41, "unit": "%"}, {"measurement": "inhibition", "setting": "[24]", "value": 88, "unit": "%"}, {"measurement": "inhibition", "setting": "[25]", "value": 75, "unit": "%"}, {"measurement": "inhibition", "setting": "[26]", "value": 97, "unit": "%"}, {"measurement": "inhibition", "setting": "[27]", "value": 100, "unit": "%"}]}
